Test results published in paper PMC9161374 (Science Translational Medicine, 2022).
Where “and” joins values, the source holds several entries; their conditions need not be identical. Equal entries are not always repeated.

What was measured:
SARS-CoV-2 (B.1) = test: Anti-SARS-CoV-2 activity in Vero E6 cells (viral yield by qRT-PCR); format: cell-based
[1] = tested on: SARS-CoV-2 (Delta, B.1.617.2); test: microbe, parasite or virus in culture; format: cell-based; details: for % Inhibition: delta
Vero E6 cells = test: CCK-8 cell viability assay; format: cell-based, African green monkey; details: individual replicate values, Fig.S4
Outline: (§1)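 Vero E6 cells, 20,000/well, exposed to compound at 0–200 μM (0, 0.01, 0.1, 1, 5, 10, 50, 75, 100, 200 μM) for 48 h; viability read by CCK-8 and expressed as percentage versus drug concentration, mean ± SD.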

[2] = CCK-8 cell viability assay; format: cell-based, African green monkey; details: African green monkey; Vero E6 cells, 48 h, CCK8
Outline: as §1

CC(C)C(=O)OC[C@H]1O[C@@](C#N)(c2ccc3c(N)ncnn23)[C@H](O)[C@@H]1O [ATV006]
% Inhibition (SARS-CoV-2 (B.1); B.1, 1 uM, Vero E6, replicates, 1 µM): 3.249% | % Inhibition (SARS-CoV-2 (B.1); B.1, 2 uM, Vero E6, replicates, 2 µM): 99.386% | % Inhibition (SARS-CoV-2 (B.1); B.1, 5 uM, Vero E6, replicates, 5 µM): 99.8149% | % Inhibition (SARS-CoV-2 (B.1); B.1, 10 uM, Vero E6, replicates, 10 µM): 99.9851% | % Inhibition (SARS-CoV-2 (B.1); B.1, 50 uM, Vero E6, replicates, 50 µM): 99.991% | inhibition at 0.1 µM (SARS-CoV-2 (B.1); Severe acute respiratory syndrome coronavirus 2, Vero C1008, 0.1 μM, replicates, sheet Fig.S3): 0% | inhibition at 0.5 µM (SARS-CoV-2 (B.1); Severe acute respiratory syndrome coronavirus 2, Vero C1008, 0.5 μM, replicates, sheet Fig.S3): 0% | inhibition at 2 µM (SARS-CoV-2 (B.1); Severe acute respiratory syndrome coronavirus 2, Vero C1008, 2 μM, replicates, sheet Fig.S3): 87.7% | inhibition at 5 µM (SARS-CoV-2 (B.1); Severe acute respiratory syndrome coronavirus 2, Vero C1008, 5 μM, replicates, sheet Fig.S3): 93.3% | inhibition at 10 µM (SARS-CoV-2 (B.1); Severe acute respiratory syndrome coronavirus 2, Vero C1008, 10 μM, replicates, sheet Fig.S3): 93.2% | inhibition at 0.01 µM (SARS-CoV-2 (B.1); Severe acute respiratory syndrome coronavirus 2, Vero C1008, B.1, 0.01 uM, Vero E6, replicates): 0% | inhibition at 0.1 µM (SARS-CoV-2 (B.1); Severe acute respiratory syndrome coronavirus 2, Vero C1008, B.1, 0.1 uM, Vero E6, replicates): 0% | inhibition at 0.25 µM (SARS-CoV-2 (B.1); Severe acute respiratory syndrome coronavirus 2, Vero C1008, B.1, 0.25 uM, Vero E6, replicates): 0% | inhibition at 0.5 µM (SARS-CoV-2 (B.1); Severe acute respiratory syndrome coronavirus 2, Vero C1008, B.1, 0.5 uM, Vero E6, replicates): 0% | inhibition at 1 µM (SARS-CoV-2 (B.1); Severe acute respiratory syndrome coronavirus 2, Vero C1008, B.1, 1 uM, Vero E6, replicates): 3.85% | inhibition at 2 µM (SARS-CoV-2 (B.1); Severe acute respiratory syndrome coronavirus 2, Vero C1008, B.1, 2 uM, Vero E6, replicates): 97.4% | inhibition at 5 µM (SARS-CoV-2 (B.1); Severe acute respiratory syndrome coronavirus 2, Vero C1008, B.1, 5 uM, Vero E6, replicates): 99.8% | inhibition at 10 µM (SARS-CoV-2 (B.1); Severe acute respiratory syndrome coronavirus 2, Vero C1008, B.1, 10 uM, Vero E6, replicates): 99.9% | inhibition at 50 µM (SARS-CoV-2 (B.1); Severe acute respiratory syndrome coronavirus 2, Vero C1008, B.1, 50 uM, Vero E6, replicates): 100% | EC90 (SARS-CoV-2 (B.1); Severe acute respiratory syndrome coronavirus 2, Vero C1008, read-out: EC90 (Confidence 95%)): 2180 nM | EC50 (SARS-CoV-2 (B.1); Severe acute respiratory syndrome coronavirus 2, Vero C1008, MOI 0.05, 48 h): 1360 nM | EC50 ([1]; Severe acute respiratory syndrome coronavirus 2, Vero C1008, 48 h, read-out: EC50 in Vero E6 cells, SARS-CoV-2 (Delta, B.1.617.2)): 349 nM | inhibition at 0.01 µM ([1]; Severe acute respiratory syndrome coronavirus 2, Vero C1008, delta, 0.01 uM, Vero E6, replicates): 0% | inhibition at 0.1 µM ([1]; Severe acute respiratory syndrome coronavirus 2, Vero C1008, delta, 0.1 uM, Vero E6, replicates): 0% | inhibition at 0.25 µM ([1]; Severe acute respiratory syndrome coronavirus 2, Vero C1008, delta, 0.25 uM, Vero E6, replicates): 13.4% | inhibition at 0.5 µM ([1]; Severe acute respiratory syndrome coronavirus 2, Vero C1008, delta, 0.5 uM, Vero E6, replicates): 86.8% | inhibition at 1 µM ([1]; Severe acute respiratory syndrome coronavirus 2, Vero C1008, delta, 1 uM, Vero E6, replicates): 94.7% | inhibition at 2 µM ([1]; Severe acute respiratory syndrome coronavirus 2, Vero C1008, delta, 2 uM, Vero E6, replicates): 96.7% | inhibition at 5 µM ([1]; Severe acute respiratory syndrome coronavirus 2, Vero C1008, delta, 5 uM, Vero E6, replicates): 95.5% | inhibition at 10 µM ([1]; Severe acute respiratory syndrome coronavirus 2, Vero C1008, delta, 10 uM, Vero E6, replicates): 99.9% | inhibition at 50 µM ([1]; Severe acute respiratory syndrome coronavirus 2, Vero C1008, delta, 50 uM, Vero E6, replicates): 99.9% | EC90 ([1]; Severe acute respiratory syndrome coronavirus 2, Vero C1008, read-out: EC90 (Confidence 95%), Vero-E6, Delta B.1.617.2): 506 nM | % Inhibition ([1]; 0.25 uM, Vero E6, replicates): 17.4307% | % Inhibition ([1]; 0.5 uM, Vero E6, replicates): 86.6826% | % Inhibition ([1]; 1 uM, Vero E6, replicates): 92.7523% | % Inhibition ([1]; 2 uM, Vero E6, replicates): 95.2669% | % Inhibition ([1]; 5 uM, Vero E6, replicates): 93.5585% | % Inhibition ([1]; 10 uM, Vero E6, replicates): 99.4329% | % Inhibition ([1]; 50 uM, Vero E6, replicates): 99.3835% | cell viability (% of control) (Vero E6 cells; 0.01 μM compound, 0.01 µM): 93.4165 % of control and 118.52 % of control and 111.314 % of control | cell viability (% of control) (Vero E6 cells; 0.1 μM compound, 0.1 µM): 114.92 % of control and 109.106 % of control and 122.304 % of control | cell viability (% of control) (Vero E6 cells; 1 μM compound, 1 µM): 103.338 % of control and 92.7243 % of control and 89.4018 % of control | cell viability (% of control) (Vero E6 cells; 2 μM compound, 2 µM): 94.6163 % of control and 92.5859 % of control and 102 % of control | cell viability (% of control) (Vero E6 cells; 5 μM compound, 5 µM): 130.333 % of control and 131.994 % of control and 107.906 % of control | cell viability (% of control) (Vero E6 cells; 10 μM compound, 10 µM): 124.057 % of control and 118.52 % of control and 118.981 % of control | cell viability (% of control) (Vero E6 cells; 50 μM compound, 50 µM): 93.4165 % of control and 89.4165 % of control | cell viability (% of control) (Vero E6 cells; 75 μM compound, 75 µM): 60.8815 % of control and 65.7193 % of control and 58.2133 % of control | cell viability (% of control) (Vero E6 cells; 100 μM compound, 100 µM): 50.7027 % of control and 56.7073 % of control and 50.0144 % of control | cell viability (% of control) (Vero E6 cells; 200 μM compound, 200 µM): 35.664 % of control and 47.0944 % of control and 42.1024 % of control | CC50 at 48 h [2]: 128000 nM
